According to article PMC8347595, “N-Skatyltryptamines—Dual 5-HT6R/D2R Ligands with Antipsychotic and Procognitive Potential” (Molecules, 2021):
Read-outs that look alike come from different tables or passages of the source.

What was measured:
[1] = target: 5-HT6R (Homo sapiens, UniProt P50406); test: Radioligand binding assay, [3H]-LSD displacement
[2] = target: T1, D2R (Homo sapiens, UniProt P14416); test: Radioligand binding assay, [3H]-raclopride displacement
[3] = target: T2, 5-HT1AR (Homo sapiens, UniProt P08908); test: Radioligand binding assay, [3H]-8-OH-DPAT displacement
T2 sequence (P08908 1-422): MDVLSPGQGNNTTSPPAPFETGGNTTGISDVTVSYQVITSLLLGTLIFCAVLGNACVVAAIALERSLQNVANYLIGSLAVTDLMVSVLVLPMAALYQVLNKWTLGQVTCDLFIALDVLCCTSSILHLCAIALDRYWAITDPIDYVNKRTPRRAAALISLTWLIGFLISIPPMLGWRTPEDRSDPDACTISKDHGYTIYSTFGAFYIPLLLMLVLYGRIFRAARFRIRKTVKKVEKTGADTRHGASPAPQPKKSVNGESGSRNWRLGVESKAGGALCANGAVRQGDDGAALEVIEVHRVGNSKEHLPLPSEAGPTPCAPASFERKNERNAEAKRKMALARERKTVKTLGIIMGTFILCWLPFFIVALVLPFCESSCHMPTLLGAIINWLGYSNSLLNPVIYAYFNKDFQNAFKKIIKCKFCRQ

[4] = target: 5-HT2AR (Homo sapiens, UniProt P28223); test: Radioligand binding assay, [3H]-ketanserin displacement; design: host or cells: CHO-K1; membrane preparation; conditions: Table 1
Chain of 5-HT2AR (P28223 whole entry): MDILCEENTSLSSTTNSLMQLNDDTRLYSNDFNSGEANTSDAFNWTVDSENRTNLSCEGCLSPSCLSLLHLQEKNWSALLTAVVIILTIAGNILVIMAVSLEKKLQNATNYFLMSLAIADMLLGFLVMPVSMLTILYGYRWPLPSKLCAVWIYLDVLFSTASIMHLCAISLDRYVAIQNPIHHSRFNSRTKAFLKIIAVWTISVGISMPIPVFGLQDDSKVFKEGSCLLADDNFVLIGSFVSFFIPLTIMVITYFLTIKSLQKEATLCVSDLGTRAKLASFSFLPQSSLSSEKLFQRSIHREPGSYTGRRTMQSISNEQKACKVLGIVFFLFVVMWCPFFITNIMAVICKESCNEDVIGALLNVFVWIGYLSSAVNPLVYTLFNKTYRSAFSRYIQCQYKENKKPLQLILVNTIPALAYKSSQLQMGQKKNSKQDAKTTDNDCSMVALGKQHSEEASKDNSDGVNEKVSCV

[5] = target: 5-HT7R (Homo sapiens, UniProt P34969); test: Radioligand binding assay, [3H]-5-CT displacement
Chain of 5-HT7R (P34969 1-432): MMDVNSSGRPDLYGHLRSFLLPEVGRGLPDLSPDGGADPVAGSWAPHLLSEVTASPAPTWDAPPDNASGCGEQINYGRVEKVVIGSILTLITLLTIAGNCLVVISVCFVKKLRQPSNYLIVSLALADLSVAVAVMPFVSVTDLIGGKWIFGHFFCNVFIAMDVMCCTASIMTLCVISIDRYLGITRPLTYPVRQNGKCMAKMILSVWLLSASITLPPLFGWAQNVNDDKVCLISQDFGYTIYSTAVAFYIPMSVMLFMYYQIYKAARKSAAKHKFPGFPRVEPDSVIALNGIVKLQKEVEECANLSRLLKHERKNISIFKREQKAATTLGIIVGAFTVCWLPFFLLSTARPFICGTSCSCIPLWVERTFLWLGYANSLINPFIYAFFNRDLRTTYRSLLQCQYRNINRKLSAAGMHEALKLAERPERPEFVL

[6] = target: T1, D2R; test: D2R functional assay, antagonist mode (cAMP, HEK293 cells); assay type: cell-based; design: expressed in transfected cells
Description: The supernatant was aspirated, and the cell pellet was resuspended in stimulation buffer (1 × HBSS, 5 mM HEPES, 0.5 mM IBMX, 0.1% BSA).
The functional properties of compounds were evaluated using the LANCE Ultra cAMP Detection Kit (PerkinElmer). D2 receptors in HEK293 cells are coupled to Gi subtype and decreased cAMP production. […] Each compound was tested in triplicate at eight concentrations (10^−11–10^−4 M).
For quantification of cAMP levels, cells (5 µL) were incubated with 5 µL mixture of compounds (tested ligand and forskolin with 100 nM quinpirole for antagonist binding mode) for 30 min at room temperature in 384-well white opaque microtiter plate (PerkinElmer). After incubation, the reaction was stopped and cells were lysed by the addition of 10 µL working solution (5 µL Eu-cAMP and 5 µL ULight-anti-cAMP). The assay plate was incubated for 1 h at room temperature. Time-resolved fluorescence resonance energy transfer (TR-FRET) signal was detected by an Infinite M1000 Pro (Tecan) using instrument settings from the LANCE Ultra cAMP Detection Kit manual.

[7] = target: T3, Human Serotonin 5-HT6R (Homo sapiens, UniProt P50406); test: 5-HT6R functional assay, antagonistic mode (cAMP induced by 5-CT, 1321N1 cells); assay type: cell-based
T3 construct: host or cells: 1321N1 (frozen recombinant cells)
T3 sequence (P50406 whole entry): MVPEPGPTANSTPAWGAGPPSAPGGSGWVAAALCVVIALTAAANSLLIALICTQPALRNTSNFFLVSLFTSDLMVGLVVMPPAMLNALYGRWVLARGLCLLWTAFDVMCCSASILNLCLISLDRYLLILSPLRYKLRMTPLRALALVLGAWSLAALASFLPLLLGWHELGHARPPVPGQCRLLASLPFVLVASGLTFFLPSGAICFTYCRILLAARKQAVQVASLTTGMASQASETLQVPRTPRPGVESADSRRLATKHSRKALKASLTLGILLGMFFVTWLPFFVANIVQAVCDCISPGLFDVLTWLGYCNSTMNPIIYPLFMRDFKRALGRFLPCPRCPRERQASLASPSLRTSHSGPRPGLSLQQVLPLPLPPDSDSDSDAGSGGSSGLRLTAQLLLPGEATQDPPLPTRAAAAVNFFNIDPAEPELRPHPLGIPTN
Description: The properties of compounds to inhibit cAMP production induced by a 5-HT6R agonist 5-CT (1000 nM) was evaluated. Compounds were tested in triplicate at eight concentrations (10^−11–10^−4 M). The level of cAMP was measured using frozen recombinant 1321N1 cells expressing the Human Serotonin 5-HT6R (PerkinElmer). Total cAMP was measured using the LANCE cAMP Detection Kit (PerkinElmer), according to the manufacturer’s instructions. For quantification of cAMP levels, 2000 cells/well ([…]) were incubated with a mixture of compounds ([…]) for 30 min at room temperature in a 384-well white opaque microtiter plate. After incubation, the reaction was stopped and cells were lysed by the addition of […] of working solution ([…] ULight-anti-cAMP) for 1 h at room temperature. Time-resolved fluorescence resonance energy transfer (TR-FRET) was detected by an Infinite M1000 Pro (Tecan) using instrument settings from the LANCE cAMP Detection Kit manual. […] The agonistic properties of compounds were determined with an analogous procedure, but without stimulation with 5-CT [10, 36].

[8] = Metabolic stability, incubation with mouse liver microsomes; assay type: in vitro ADME; conditions: MLMs, 50 µM, 2 h
Description: The murine liver microsomes (MLMs) were purchased from Sigma-Aldrich (St. Louis, MO, USA). To determine metabolic pathways, the tested compounds (50 µM) were incubated with 100 mM Tris-HCl buffer at 37 °C with MLMs (1 mg/mL) and NADPH Regeneration System for 2 h. Reactions were quenched with cold, pure methanol and mixtures were centrifuged 14,000 g for 15 min. The supernatants were analyzed using LCMS. The additional MS ion fragmentation of the product and the substrate were performed to determine the most probable structure of the metabolite.

[9] = target: T4, CYP3A4 (Homo sapiens, UniProt P08684); test: CYP3A4 P450-Glo luminescent assay; assay type: in vitro ADME; conditions: compared to ketoconazole; 0.01 to 25 µM
T4 construct: purchased Promega (Madison, WI, USA)
T4 sequence (P08684 whole entry): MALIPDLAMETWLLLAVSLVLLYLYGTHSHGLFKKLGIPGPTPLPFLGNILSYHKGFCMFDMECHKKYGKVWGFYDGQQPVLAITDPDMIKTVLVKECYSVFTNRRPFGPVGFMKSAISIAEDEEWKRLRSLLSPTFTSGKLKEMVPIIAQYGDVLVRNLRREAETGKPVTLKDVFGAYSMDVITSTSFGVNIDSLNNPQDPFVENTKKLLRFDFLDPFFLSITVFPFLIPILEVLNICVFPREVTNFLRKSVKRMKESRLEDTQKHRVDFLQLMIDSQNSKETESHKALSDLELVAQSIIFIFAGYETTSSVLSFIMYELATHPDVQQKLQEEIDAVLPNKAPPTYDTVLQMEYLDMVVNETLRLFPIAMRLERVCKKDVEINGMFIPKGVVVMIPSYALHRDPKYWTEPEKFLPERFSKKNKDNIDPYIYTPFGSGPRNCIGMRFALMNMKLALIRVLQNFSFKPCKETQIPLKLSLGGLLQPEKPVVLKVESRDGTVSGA
Description: The experiments were provided using commercially available luminescent CYP3A4 P450-Glo™ and CYP2D6 P450-Glo™ tests purchased from Promega (Madison, WI, USA). The enzymatic reactions were conducted in polystyrene, flat-bottom Nunc™ MicroWell™ 96-well microplates (Thermo Scientific, Waltham, MA, USA). The assays were carried out according to the procedures provided by the manufacturer, as described previously. Compounds were tested in triplicate at the final concentrations in a range from 0.01 to 25 µM for both isoforms of CYP450. The references of CYP3A4 and CYP2D6 inhibitors (ketoconazole and quinidine, respectively) were tested in a range from 0.001 to 10 µM. Tested compounds were incubated in 100 mM Tris-HCl buffer separately with CYP3A4 and CYP2D6 membranes and the NADPH Regeneration System for 30 min at room temperature in triplicate. The bioluminescent signal was measured after the addition of the Luciferin Detection Reagent by using a microplate reader EnSpire PerkinElmer (Waltham, MA, USA). Both reagents (NADPH Regeneration System and Luciferin Detection Reagent) were purchased from Promega (Madison, WI, USA).

[10] = test system: HepG2 cell line; test: Hepatotoxicity assay, HepG2 viability; assay type: cell-based; conditions: 1 μM, 72 h
Description: To estimate the hepatotoxicity of compounds, the hepatoma HepG2 (ATCC® HB-8065TM) cell line was used according to previously described protocols. The CellTiter 96® AQueous Non-Radioactive Cell Proliferation Assay was obtained from Promega (Madison, WI, USA). The compounds were tested in quadruplicate at four concentrations (1–100 µM) for 72 h.

[11] = in vitro; conditions: PAMPA, pH 7.4
[12] = for permeability in words: PAMPA
[13] = test system: 5-HT6; design: method as in Dupuis et al. (2008) [31]; conditions: Figure 8; ref Dupuis et al. (2008) [31]; cited from earlier work
[14] = read-out: pKi 5-HT2A (converted)
[15] = antagonistic mode, 100 nM quinpirole, read-out: D2 Kb
[16] = antagonistic mode, 5-CT 1000 nM, read-out: 5-HT6 Kb

T1 sequence (P14416 whole entry): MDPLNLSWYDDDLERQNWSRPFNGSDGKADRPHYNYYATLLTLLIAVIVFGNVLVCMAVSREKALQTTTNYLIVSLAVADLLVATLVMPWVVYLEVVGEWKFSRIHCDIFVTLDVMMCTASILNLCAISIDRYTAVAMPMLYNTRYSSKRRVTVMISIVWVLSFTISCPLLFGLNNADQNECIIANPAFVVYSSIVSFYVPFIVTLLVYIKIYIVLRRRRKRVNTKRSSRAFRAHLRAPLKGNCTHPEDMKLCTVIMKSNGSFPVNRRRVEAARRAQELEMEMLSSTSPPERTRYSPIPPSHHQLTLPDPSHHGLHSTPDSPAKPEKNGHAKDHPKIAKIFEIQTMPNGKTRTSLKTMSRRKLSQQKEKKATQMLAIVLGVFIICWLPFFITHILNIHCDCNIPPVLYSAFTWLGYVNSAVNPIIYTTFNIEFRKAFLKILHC
Chain of 5-HT6R (P50406 whole entry): as the sequence (P50406 whole entry) above

| Compound | Ki ([1]; pKi 5-HT6, Table 1) [nM] | Ki ([2]; pKi D2, Table 1) [nM] | Ki ([3]; pKi 5-HT1A, Table 1) [nM] | Ki [4, 14] [nM] | Ki [5] [nM] | other results |
| --- | --- | --- | --- | --- | --- | --- |
| Ic1ccc2[nH]cc(CNCCc3c[nH]c4ccccc34)c2c1 [Compound 12] | 457 | 2090 | 490 | 2340 | 5130 | – |
| Fc1ccc2c(CNCCc3c[nH]c4ccccc34)c[nH]c2c1 [Compound 13] | 224 | 302 | – | – | 18200 | Ki ([1]; Ki 5-HT6, Figure 8): 225 nM; EC50 [6]: 91 nM; Kb [6]: 91 nM; Kb [7]: 30 nM; Ki ([2]; Ki D2, Figure 8): 299 nM; Ki [3]: 1350 nM; Ki ([4]; pKi 5-HT2A): 2570 nM |
| Clc1ccc2c(CNCCc3c[nH]c4ccccc34)c[nH]c2c1 [Compound 14] | 89.1 | 123 | 1070 | 468 | 15800 | Metabolic Pathway, metabolite M1 [8]: hydroxylation hydroxylation; Metabolic Pathway, metabolite M2 [8]: hydroxylation hydroxylation; Ki ([1]; Ki 5-HT6, Figure 8): 90 nM; Kb [6, 15]: 290 nM; effect on CYP3A4 activity [9]: only slightly inhibited; Kb [7, 16]: 112 nM; Ki ([2]; Ki D2, Figure 8): 124 nM; HepG2 cell viability [10]: ~ 80 % of the control; effect on HepG2 proliferation in words [10]: slight antiproliferative effect; Papp at 5 h, 200 µM [11]: 8.34 ± 1.33 ×10⁻⁶ cm/s; permeability in words [12]: medium permeability coefficients |
| Fc1cccc2c(CNCCc3c[nH]c4ccccc34)c[nH]c12 [Compound 16] | 316 | – | 5620 | 1230 | 12900 | – |
| Clc1cccc2c(CNCCc3c[nH]c4ccccc34)c[nH]c12 [Compound 17] | 363 | 51.3 | 282 | 3890 | 1070 | Metabolic Pathway, metabolite M1 [8]: hydroxylation hydroxylation; Metabolic Pathway, metabolite M2 [8]: hydroxylation hydroxylation; Kb [6, 15]: 215 nM; effect on CYP3A4 activity [9]: only slightly inhibited; Kb [7, 16]: 234 nM; Ki ([2]; Ki D2, Figure 8): 51 nM; HepG2 cell viability [10]: ~ 80 % of the control; effect on HepG2 proliferation in words [10]: slight antiproliferative effect; Papp at 5 h, 200 µM [11]: 8.42 ± 0.27 ×10⁻⁶ cm/s; permeability in words [12]: medium permeability coefficients |
| c1ccc(COc2cccc3c(CNCCc4c[nH]c5ccccc45)c[nH]c23)cc1 [Compound 19] | 302 | 4070 | 741 | 2290 | 11200 | Ki ([1]; Ki 5-HT6, Figure 8): 303 nM |
| COc1ccc2[nH]cc(CCNCc3c[nH]c4c(Cl)cccc34)c2c1 [Compound 20] | 97.7 | 2340 | – | 309 | 295 | Ki [3]: 79.4 nM |
| COc1ccc2[nH]cc(CCNCc3c[nH]c4cc(Cl)ccc34)c2c1 [Compound 21] | 52.5 | 1550 | 186 | 174 | 813 | – |
| Clc1ccc2c(CCNCc3c[nH]c4c(Cl)cccc34)c[nH]c2c1 [Compound 22] | 363 | 5010 | 5620 | 4070 | 13200 | – |
| CCn1cc(C(=O)O)c(=O)c2cc(F)c(N3CCNCC3)cc21 [Norfloxacin, norfloxacin, reference compound] | – | – | – | – | – | PAMPA Pe ± SD ([12]; 5 h, 200 µM, pH 7.4): 0.56 10^−6 cm/s |
